In general, pIC50 refers to −log10 of the IC50, conventionally taken in molar units.

These results are taken from ChEMBL document CHEMBL5236578, “Structure-activity relationship study of 4,5-didehydroguadiscine, an aporphine alkaloid showing potent melanogenesis-inhibitory activity in B16 melanoma cells” (Bioorg Med Chem Lett, 2022).

pIC50: −log10 of the molar value. Where a name gives a salt, the structure may show the parent alone.

One experiment can be described thus: Anti-melanogenic activity in theophylline-stimulated mouse B16 melanoma 4A5 cells assessed as inhibition of melanogenesis. Type of experiment: functional, cell-based.
`COc1ccc2c(c1)C(C)(C)c1nccc3cc4c(c-2c13)OCO4`: the pIC50 was 5.31.

On to `COc1cccc(C(C)(C)c2nccc3cc(OC)ccc23)c1`, for which the pIC50 is below 4.52.

Turning to `COc1cccc(C(C)(C)c2nccc3cc4c(cc23)OCO4)c1`, the negative-log IC50 (pIC50) was below 4.52.

On to `CC1(C)c2ccccc2-c2c3c(cc4ccnc1c24)OCO3`, for which the pIC50 is 5.17.

For the compound `COc1cc2c(cc1OC)[C@@H](Cc1ccc(O)cc1)N(C)CC2`, the pIC50 is 5.19.

In the case of `CC(C)(c1ccccc1)c1nccc2ccccc12`, the pIC50 is below 4.52.

`COc1ccc2c(c1)C(C)(C)c1nccc3cc(OC)cc-2c13`: the pIC50 was 5.12.

In the case of `CC1(C)c2ccccc2-c2cccc3ccnc1c23`, the pIC50 is 5.51.

In the case of `CC(C)(c1ccccc1)c1nccc2cc3c(cc12)OCO3`, the pIC50 was below 4.52.

Take `COc1cc2c3c(nccc3c1)C(C)(C)c1ccccc1-2`: the pIC50 was 5.30.

Consider `COc1ccc2c(C(C)(C)c3ccccc3)nccc2c1`, for which the pIC50 was below 4.52.

With `COc1ccc2ccnc(C(C)(C)c3ccccc3)c2c1`, the pIC50 was 4.74.

Regarding `COc1ccc2ccnc3c2c1-c1ccccc1C3(C)C`, the negative-log IC50 (pIC50) was 5.40.

Turning to `OC[C@H]1O[C@@H](Oc2ccc(O)cc2)[C@H](O)[C@@H](O)[C@@H]1O` [ARBUTIN], the pIC50 was 3.76.

On to `COc1cc2c3c(c1OC)-c1ccccc1C[C@H]3N(C)CC2` [NUCIFERINE HYDROCHLORIDE], for which the pIC50 was 5.15.

A short description of the next experiment: Potency index, ratio of arbutin IC50 to test compound IC50 for anti-melanogenic activity in theophylline-stimulated mouse B16 melanoma 4A5 cells assessed as inhibition of melanogenesis. The class given is functional.
In the case of `COc1ccc2c(c1)C(C)(C)c1nccc3cc4c(c-2c13)OCO4`, the “Ratio IC50” value is 40.
